This note sets out measurements from PubChem BioAssay AID835 (The Scripps Research Institute Molecular Screening Center, 2007).

Calls of active or inactive are those of the source. How the calls were made is not given here.

The IC50 is the concentration needed to halve the response being measured.

Chain of Ephrin type-B receptor 4 (Homo sapiens) (P54760 whole entry, looked up): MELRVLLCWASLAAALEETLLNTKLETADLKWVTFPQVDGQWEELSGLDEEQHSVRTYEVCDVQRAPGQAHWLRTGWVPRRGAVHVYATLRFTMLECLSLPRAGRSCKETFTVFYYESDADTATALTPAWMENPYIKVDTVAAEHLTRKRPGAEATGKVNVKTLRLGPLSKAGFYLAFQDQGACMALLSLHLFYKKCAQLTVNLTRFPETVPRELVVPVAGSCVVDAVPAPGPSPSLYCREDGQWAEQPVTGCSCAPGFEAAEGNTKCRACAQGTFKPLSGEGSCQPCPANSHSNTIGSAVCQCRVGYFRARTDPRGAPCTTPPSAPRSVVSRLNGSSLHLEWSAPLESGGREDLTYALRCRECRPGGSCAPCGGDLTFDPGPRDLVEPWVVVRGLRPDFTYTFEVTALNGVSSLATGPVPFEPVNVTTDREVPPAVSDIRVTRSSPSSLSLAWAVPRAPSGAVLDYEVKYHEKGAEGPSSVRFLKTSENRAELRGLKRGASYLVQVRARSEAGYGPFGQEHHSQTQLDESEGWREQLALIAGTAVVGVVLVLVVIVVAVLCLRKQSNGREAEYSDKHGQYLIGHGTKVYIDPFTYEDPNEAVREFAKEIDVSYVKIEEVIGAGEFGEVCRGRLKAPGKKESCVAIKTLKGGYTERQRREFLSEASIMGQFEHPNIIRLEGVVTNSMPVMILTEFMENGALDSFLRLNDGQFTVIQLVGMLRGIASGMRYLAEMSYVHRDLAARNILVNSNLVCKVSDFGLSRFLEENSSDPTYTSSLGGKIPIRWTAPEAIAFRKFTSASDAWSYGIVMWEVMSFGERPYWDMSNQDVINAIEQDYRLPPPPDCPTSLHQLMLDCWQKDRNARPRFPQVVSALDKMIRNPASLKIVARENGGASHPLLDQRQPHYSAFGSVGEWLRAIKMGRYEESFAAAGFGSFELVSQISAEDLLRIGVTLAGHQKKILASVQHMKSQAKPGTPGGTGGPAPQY

This assay has as its target Ephrin type-B receptor 4 (Homo sapiens) (UniProt P54760). The experiment in a line: EphB4-ephrin-B2 interaction antagonists, dose response, biochemical, TNYL-RAW peptide displacement (AID 835).
With `CCn1c(O)c(C=Nc2ccc(N3CCOCC3)cc2)c(=O)n(CC)c1=S`, the IC50 is > 79.4 µM (inactive).
On to `CCCc1[nH]nc2c1C(c1ccc(OC)c(Cn3nnc4ccccc43)c1)C(C#N)=C(N)O2` (centres undefined), for which the IC50 was > 79.4 µM (inactive).
As for `CC1=Nc2ccccc2/C1=C\c1nc(-c2ccc(F)cc2)oc1O`, the IC50 was > 79.4 µM (inactive).
On to `COC(=O)CSC1=C(C#N)C(c2ccc(C)cc2)C2=C(CCCC2=O)N1` (centres undefined), for which the IC50 is > 79.4 µM (inactive).
Take `CCOc1cccc(N2C(=O)CC(=O)NC2=O)c1`: the IC50 is > 79.4 µM (inactive).
Under `Clc1cccc(/C=N/Nc2ncnc3ccccc23)c1` stands > 79.4 µM (inactive); under `CCOC(=O)C1=C(c2ccccc2)N2CCS(=O)(=O)N=C2S1`, > 79.4 µM (inactive).
On to `Oc1[nH]c2ccccc2c1N=Nc1nc2ccccc2s1`, for which the IC50 was > 79.4 µM (inactive).
Under `CC1=Nc2ccccc2/C1=C\c1nc(-c2ccc(C(F)(F)F)cc2)oc1O` stands > 79.4 µM (inactive).
